From US10300092B2, “Bee bloom compositions, methods of extraction and uses thereof” (KANE, Penny Coleen, priority 2011, dated 2019)

Test system: sensitized rat intestine
Test: In vitro anaphylaxis: ovalbumin (antigen)-induced contractile response of sensitized rat intestine in organ bath
Type: cell-based
Details: control peptide feG 10^−8 M
Experimental: Data are expressed as the mean +/− standard error. The data were analyzed using Student's t test for paired samples. Significant differences were accepted if p <0.05. Outlier analysis was performed using a modified Z-score that uses the median of absolute deviation A Z-score with an absolute value of greater than 4.0 was labeled as a potential outlier, and the corresponding data value was excluded.
Male Sprague Dawley rats (Charles River Laboratories, Montreal, QC) of initial weights of 150 g were maintained with lights on from 700 to 1900 h and given food and water ad libitum. The rats were sensitized to 1 mg ovalbumin (OA) using 50 ng of pertussis toxin (Sigma-Aldrich, St. Louis, Mo.) as an adjuvant.
Five to eight weeks following sensitization, the terminal duodenum of the rats was excised and 1 cm sections were mounted in 25 ml organ baths, containing bicarbonate Krebs′ buffer, with 1.0 g of tension. The isometric force generated in response to OA and carbachol (CAR; (2-[(aminocaronyl)oxyl-N,N,N-trimethylethanaminium), a cholinergic agonist, (Sigma-Aldrich) was measured using a Grass Force Displacement Transducer FTO3 (Quincy, MA>. Data were recorded with PolyView software (Polybytes, Inc., Cedar Rapids, Iowa). The tissues were allowed to equilibrate for 30 min during which they were washed several times with buffer, and applied tension was adjusted.
Eight tissue segments were mounted in separate tissue baths, with one tissue segment serving to evaluate if the intestinal tissues elicit a contractile response to the antigen. […] In the absence of a contractile response to antigen the tissues were discarded, and another animal taken.
Once peak contractile responses were attained the tissues were washed three times, baseline re-established and peak contractile response to 10^−5M CAR obtained. The mucosa was then scraped from the tissue, and the mass of the muscle determined. Responses were determined as grams of force/mg wet tissue.
Contractile responses to OA and CAR were measured at peak contraction, and calculated as grams of force per gram wet tissue. Results are expressed in three formats: • i) the amplitude of the OA-induced contractile response (grams of force/mg wet tissue), • ii) the ratio of the Bee Bloom response to the OR response (Bee Bloom/OA) (i.e. animal matched control), • iii) the ratio of the OA and CAR-induced contractile responses (ONCAR) (i.e. tissue matched controls).

Substance: D-phenylalanine-D-glutamate-Glycine [control]
- inhibition of antigen-induced contractions (FIGS. 1 and 2): significantly inhibited
- inhibition of antigen-induced contractions, ratio to OA response, animal matched control (FIG. 3): significantly inhibited
- inhibition of the OA:CAR ratio, tissue matched controls (FIG. 4): did not significantly inhibit
- inhibition of antigen-induced contractions (stated as closely matched by Bee Bloom): ~−40%
